Data reported in publication PMC10796436, “Peptidyl nitroalkene inhibitors of main protease rationalized by computational and crystallographic investigations as antivirals against SARS-CoV-2” (Communications Chemistry, 2024).
Several values for one entry are separate records, joined by “and”; a condition that tells them apart may be missing. Equal values may be shown once.

Tests used:
[1] = biological target: Zika Virus NS2B/NS3 (bZiPro) (Zika virus, UniProt A0A024B7W1); experiment: Zika virus protease inhibition, fluorometric assay; type: biochemical; settings: 20 μM
M^pro = M^pro (Severe acute respiratory syndrome coronavirus 2, UniProt P0DTD1); experiment: biochemical; type: binding
SARS-CoV-2 M^pro [2] = biological target: T1, SARS-CoV-2 M^pro (Severe acute respiratory syndrome coronavirus 2, UniProt P0DTD1); experiment: biochemical; settings: M^pro from pMal-M^pro vector
cathepsin L (CatL) = biological target: T2, cathepsin L (CatL) (Homo sapiens, UniProt P07711); experiment: Cathepsin L inhibition, fluorometric assay; type: biochemical; settings: read-out: Ki CatL
T2 construct: purchased Calbiochem (Merck Millipore)

Huh-7-ACE2 cells = settings: 24h
SARS-CoV-2 = experiment: microbe, parasite or virus in culture; type: cell-based; settings: for virus titer Mean (%): mean of Exp.1-3
[3] = biological target: human matriptase (MT-SP1) (Homo sapiens, UniProt Q9Y5Y6); experiment: Matriptase inhibition, fluorometric assay; type: biochemical; settings: 20 μM
SARS-CoV-2 M^pro [4] = biological target: T1, SARS-CoV-2 M^pro; experiment: Mpro FRET inhibition, continuous fluorometric assay (Fluorolog-3), enzyme from pET21-M^pro vector; type: biochemical; settings: read-out: Ki (μM)^b

Chain of human matriptase (MT-SP1) (Q9Y5Y6 615-855 limits assumed, other chains not shown): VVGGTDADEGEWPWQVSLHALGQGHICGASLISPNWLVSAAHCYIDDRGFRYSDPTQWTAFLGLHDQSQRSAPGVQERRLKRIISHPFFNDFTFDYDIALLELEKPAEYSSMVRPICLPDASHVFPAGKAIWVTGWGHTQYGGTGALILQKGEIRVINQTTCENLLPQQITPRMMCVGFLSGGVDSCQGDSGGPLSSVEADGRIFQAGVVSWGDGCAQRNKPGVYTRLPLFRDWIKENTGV
T2 sequence (P07711 114-288 limits assumed): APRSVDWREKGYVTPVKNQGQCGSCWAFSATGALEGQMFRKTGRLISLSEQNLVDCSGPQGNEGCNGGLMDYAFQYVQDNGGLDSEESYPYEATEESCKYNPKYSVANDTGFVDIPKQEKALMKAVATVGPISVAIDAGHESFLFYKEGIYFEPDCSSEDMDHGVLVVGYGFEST
T2 sequence (P07711 292-333 limits assumed): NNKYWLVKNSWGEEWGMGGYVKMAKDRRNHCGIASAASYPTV
Chain of Zika Virus NS2B/NS3 (bZiPro) (A0A024B7W1 1425-1464): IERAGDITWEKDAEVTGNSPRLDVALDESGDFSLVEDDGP
Chain of Zika Virus NS2B/NS3 (bZiPro) (A0A024B7W1 1503-1680): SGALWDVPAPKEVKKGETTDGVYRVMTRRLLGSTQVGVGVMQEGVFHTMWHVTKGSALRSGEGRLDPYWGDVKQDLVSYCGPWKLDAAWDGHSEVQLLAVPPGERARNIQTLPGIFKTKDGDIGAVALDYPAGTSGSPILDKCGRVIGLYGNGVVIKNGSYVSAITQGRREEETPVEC

COc1cccc2[nH]c(C(=O)N[C@@H](CC(C)C)C(=O)N[C@H](/C=C/[N+](=O)[O-])C[C@@H]3CCNC3=O)cc12 [FGA146]
bZiPro [1]: n.i. (no inhibition (<10%) was observed at a concentration of 20 μM)
Tm of M^pro (M^pro): 45.0 ± 0.2 °C and 42.8 ± 0.1 °C
DTm (°C) (M^pro; 25 mM): -4.2 °C
Fraction unfolded (M^pro; 25 mM, 21.5 °C): -0.01003
Fraction unfolded (M^pro; 25 mM, 22 °C): -0.02886
Fraction unfolded (M^pro; 25 mM, 22.5 °C): -0.03599
Fraction unfolded (M^pro; 25 mM, 23 °C): -0.01149
Fraction unfolded (M^pro; 25 mM, 23.5 °C): 0.01389
Fraction unfolded (M^pro; 25 mM, 24 °C): 0.08488
Fraction unfolded (M^pro; 25 mM, 24.5 °C): 0.03781
Fraction unfolded (M^pro; 25 mM, 25 °C): -0.07553
Fraction unfolded (M^pro; 25 mM, 25.5 °C): 0.01064
Fraction unfolded (M^pro; 25 mM, 26 °C): 0.08908
Fraction unfolded (M^pro; 25 mM, 26.5 °C): 0.04267
Fraction unfolded (M^pro; 25 mM, 27 °C): -0.01602
Fraction unfolded (M^pro; 25 mM, 27.5 °C): 0.0059
Fraction unfolded (M^pro; 25 mM, 28 °C): -0.0719
Fraction unfolded (M^pro; 25 mM, 28.5 °C): 0.01153
Fraction unfolded (M^pro; 25 mM, 29 °C): -0.09309
Fraction unfolded (M^pro; 25 mM, 29.5 °C): -0.02786
Fraction unfolded (M^pro; 25 mM, 30 °C): -0.01911
Fraction unfolded (M^pro; 25 mM, 30.5 °C): 0.07168
Fraction unfolded (M^pro; 25 mM, 31 °C): 0.0139
Fraction unfolded (M^pro; 25 mM, 32 °C): -0.02402
Fraction unfolded (M^pro; 25 mM, 32.5 °C): 0.02054
Fraction unfolded (M^pro; 25 mM, 66.5 °C): 0.9674
Fraction unfolded (M^pro; 25 mM, 67 °C): 1.009
Fraction unfolded (M^pro; 25 mM, 67.5 °C): 1.012
Fraction unfolded (M^pro; 25 mM, 68 °C): 1.038
Fraction unfolded (M^pro; 25 mM, 68.5 °C): 1.026
Fraction unfolded (M^pro; 25 mM, 69 °C): 1.004
Fraction unfolded (M^pro; 25 mM, 69.5 °C): 1.031
Fraction unfolded (M^pro; 25 mM, 70 °C): 1.005
Fraction unfolded (M^pro; 25 mM, 70.5 °C): 0.9826
Fraction unfolded (M^pro; 25 mM, 71 °C): 1.014
Fraction unfolded (M^pro; 25 mM, 71.5 °C): 1.05
Fraction unfolded (M^pro; 25 mM, 72 °C): 1.03
Fraction unfolded (M^pro; 25 mM, 72.5 °C): 1.006
Fraction unfolded (M^pro; 25 mM, 73 °C): 1.029
Fraction unfolded (M^pro; 25 mM, 73.5 °C): 0.9779
Fraction unfolded (M^pro; 25 mM, 74 °C): 1.013
Fraction unfolded (M^pro; 25 mM, 74.5 °C): 1.064
Fraction unfolded (M^pro; 25 mM, 75 °C): 1.029
Fraction unfolded (M^pro; 25 mM, 75.5 °C): 1.031
Fraction unfolded (M^pro; 25 mM, 76 °C): 1.031
Fraction unfolded (M^pro; 25 mM, 76.5 °C): 0.9806
Fraction unfolded (M^pro; 25 mM, 77 °C): 1.015
Fraction unfolded (M^pro; 25 mM, 77.5 °C): 1.011
Fraction unfolded (M^pro; 25 mM, 78 °C): 1.0092
Fraction unfolded (M^pro; 25 mM, 78.5 °C): 1.012
Fraction unfolded (M^pro; 25 mM, 79 °C): 1.059
Fraction unfolded (M^pro; 25 mM, 79.5 °C): 0.9461
Fraction unfolded (M^pro; 25 mM, 80 °C): 1.0063
DTm (°C) (M^pro; 100 mM): -6.4 °C
Fraction unfolded (M^pro; 100 mM, 21.5 °C): -0.0719
Fraction unfolded (M^pro; 100 mM, 22 °C): 0.01153
Fraction unfolded (M^pro; 100 mM, 22.5 °C): -0.09309
Fraction unfolded (M^pro; 100 mM, 23 °C): -0.02786
Fraction unfolded (M^pro; 100 mM, 23.5 °C): -0.01911
Fraction unfolded (M^pro; 100 mM, 24 °C): 0.07168
Fraction unfolded (M^pro; 100 mM, 24.5 °C): 0.0139
Fraction unfolded (M^pro; 100 mM, 25 °C): 0.01178
Fraction unfolded (M^pro; 100 mM, 25.5 °C): -0.02402
Fraction unfolded (M^pro; 100 mM, 26 °C): 0.02054
Fraction unfolded (M^pro; 100 mM, 26.5 °C): 0.0786
Fraction unfolded (M^pro; 100 mM, 27 °C): -0.05017
Fraction unfolded (M^pro; 100 mM, 27.5 °C): -0.00904
Fraction unfolded (M^pro; 100 mM, 28 °C): -0.01003
Fraction unfolded (M^pro; 100 mM, 28.5 °C): -0.02886
Fraction unfolded (M^pro; 100 mM, 29 °C): -0.03599
Fraction unfolded (M^pro; 100 mM, 29.5 °C): -0.01149
Fraction unfolded (M^pro; 100 mM, 30 °C): 0.01389
Fraction unfolded (M^pro; 100 mM, 30.5 °C): 0.08488
Fraction unfolded (M^pro; 100 mM, 31 °C): 0.03781
Fraction unfolded (M^pro; 100 mM, 32 °C): 0.01064
Fraction unfolded (M^pro; 100 mM, 32.5 °C): 0.08908
Fraction unfolded (M^pro; 100 mM, 66.5 °C): 1.038
Fraction unfolded (M^pro; 100 mM, 67 °C): 1.026
Fraction unfolded (M^pro; 100 mM, 67.5 °C): 1.004
Fraction unfolded (M^pro; 100 mM, 68 °C): 1.031
Fraction unfolded (M^pro; 100 mM, 68.5 °C): 1.005
Fraction unfolded (M^pro; 100 mM, 69 °C): 0.9826
Fraction unfolded (M^pro; 100 mM, 69.5 °C): 1.014
Fraction unfolded (M^pro; 100 mM, 70 °C): 1.04
Fraction unfolded (M^pro; 100 mM, 70.5 °C): 0.9664
Fraction unfolded (M^pro; 100 mM, 71 °C): 0.9851
Fraction unfolded (M^pro; 100 mM, 71.5 °C): 0.9877
Fraction unfolded (M^pro; 100 mM, 72 °C): 0.9881
Fraction unfolded (M^pro; 100 mM, 72.5 °C): 1.095
Fraction unfolded (M^pro; 100 mM, 73 °C): 0.9972
Fraction unfolded (M^pro; 100 mM, 73.5 °C): 1.057
Fraction unfolded (M^pro; 100 mM, 74 °C): 0.8905
Fraction unfolded (M^pro; 100 mM, 74.5 °C): 1.0309
Fraction unfolded (M^pro; 100 mM, 75 °C): 0.9492
Fraction unfolded (M^pro; 100 mM, 75.5 °C): 0.9161
Fraction unfolded (M^pro; 100 mM, 76 °C): 1.007
Fraction unfolded (M^pro; 100 mM, 76.5 °C): 1.02
Fraction unfolded (M^pro; 100 mM, 77 °C): 1.017
Fraction unfolded (M^pro; 100 mM, 77.5 °C): 1.029
Fraction unfolded (M^pro; 100 mM, 78 °C): 1.021
Fraction unfolded (M^pro; 100 mM, 78.5 °C): 1.059
Fraction unfolded (M^pro; 100 mM, 79 °C): 0.9805
Fraction unfolded (M^pro; 100 mM, 79.5 °C): 0.9855
Fraction unfolded (M^pro; 100 mM, 80 °C): 1.001
Ki (SARS-CoV-2 M^pro [2]): 2.19 ± 0.18 µM
Ki (cathepsin L (CatL)): 868 ± 60 nM
CC50 (Huh-7-ACE2 cells): > 100000 nM
EC50 (SARS-CoV-2; Huh-7-ACE2, 24h p.t., […]): 900 nM
virus titer Mean (%) (SARS-CoV-2; conc 0.1): 133.333%
virus titer Mean (%) (SARS-CoV-2; conc 0.5): 86.6667%
virus titer (%) of conc 0 (SARS-CoV-2; conc 0.5, single experiments): 100% and 60%
virus titer (pfu/ml) (SARS-CoV-2; conc 0.5, single experiments): 1000000 pfu/ml and 1200000 pfu/ml
virus titer Mean (%) (SARS-CoV-2; conc 1): 22.5%
virus titer Mean (%) (SARS-CoV-2; conc 5): 0.1667%
virus titer (%) of conc 0 (SARS-CoV-2; conc 5, single experiments): 0.4% and 0.04% and 0.06%
virus titer Mean (%) (SARS-CoV-2; conc 10): 0.1023%
virus titer (%) of conc 0 (SARS-CoV-2; conc 10, single experiments): 0.12% and 0.18% and 0.007%
virus titer Mean (%) (SARS-CoV-2; conc 50): 0.02533%
virus titer (%) of conc 0 (SARS-CoV-2; conc 50, single experiments): 0.06% and 0.014% and 0.002%
virus titer Mean (%) (SARS-CoV-2; conc 100): 0.02033%
virus titer (%) of conc 0 (SARS-CoV-2; conc 100, single experiments): 0.04% and 0.018% and 0.003%
MT-SP1 [3]: n.i. (no inhibition (<10%) was observed at a concentration of 20 μM)
Ki (SARS-CoV-2 M^pro [4]): 0.96 ± 0.06 µM
